Legend:
[1] = De-gelling temperature of aqueous surfactant blends by low shear rheology (Bohlin Gemini rheometer, storage modulus vs temperature); format: physicochemical
Procedure: The temperatures at which blends of capped and uncapped surfactants de-gel were determined by standard low shear rheology with a Bohlin™ Gemini rheometer. The storage modulus (G′) at 1 Hz was determined at a strain of 0.001-0.002 in a standard C14 cup and bob geometry over a temperature range of 5-70° C., the exact range depending on the de-gelling point of the sample. Plots of storage modulus versus temperature were constructed and the de-gelling temperature was taken to be the point at which the modulus begins to fall rapidly from its high value in the gelled state (typically ca. 10^5 Pa) down to the final value in the de-gelled state (less than 10 Pa). Blends of surfactants were prepared at from 25 to 40% w/w total surfactant concentration in water. Samples were left in an oven at 55° C. for several days to ensure that the mixtures were homogeneous. Samples were placed in the C14 cup and the samples were de-gelled by raising the temperature in the rheometer, the bob was then inserted and the sample was then cooled at 1° C./min, whilst the storage modulus was regularly recorded during the cooling. Once the final temperature had been reached (i.e. when the sample had gelled), the temperature was then increased again and the modulus again recorded. The de-gelling temperature was determined from the increasing temperature cycle.
Degelling temperatures—the measurements relied on the same method as for ‘Example 1’ but just at 30% w/w total surfactant concentration.
De-gelling temperatures were measured using the same method as in Example 1.
(§1) This example provides de-gelling, cloud point and adjuvancy data for dodecyl 23 ethoxylate with n-hexyl cap and hexadecyl 20 ethoxylate with n-hexyl cap Cloud points were measured as described in example 1 for 1% aqueous solutions of the capped and uncapped surfactants both individually and as blends (see Table 30). Degelling temperatures were also measured as outlined in example 1 for 25, 30, 35 and 40% aqueous solutions of the capped and uncapped surfactants both individually and as blends (see Table 31).
(§2) This example provides de-gelling, cloud point and adjuvancy data for oleyl 20 ethoxylate with n-butyl, n-pentyl or benzyl ether caps end capped oleyl 20 ethoxylate. Cloud points were measured as described in example 1 for 1% aqueous solutions of the capped and uncapped surfactants both individually and as blends. Degelling temperatures were also measured as outlined in example 1 for 25, 30, 35 and 40% aqueous solutions o of the capped and uncapped surfactants both individually and as blends.

Avena fatua (AVEFA) = experiment: Glasshouse adjuvancy test for pinoxaden on AVEFA; format: in vivo; conditions: pinoxaden 15 g ai/ha, total surfactant 0.2% w/v, 21 days
Procedure: The efficacy of 1:1 blends of oleyl 20EO with oleyl 20EO with either n-hexanoyl, n-octanoyl or 2-ethyl hexanoyl ester caps as adjuvants for the herbicide pinoxaden was tested in a glasshouse against two weed species, sown into standard soil in pots and cultivated under controlled conditions in a glasshouse (20/16° C. day/night; 16 hours light; 65% humidity). Pinoxaden was added to the spray tank as a standard EC (emulsifiable concentrate) formulation. The plants were sprayed with pinoxaden at rates of 7.5 or 15 grams of pesticide per hectare using a laboratory track sprayer which delivered the aqueous spray composition at a rate of 200 litres per hectare, using a flat fan nozzle (Teejet 11002VS) at 2 bar. The spray solutions also contained the oleyl 20EO alone or in the 1:1 blends with the capped surfactants. The adjuvants were added to the spray solution at a total surfactant rate of 0.2% w/v. All spray solutions also contained 10% w/w of iso-propanol. The weed species and their BBCH growth stage at spraying were Avena fatua (AVEFA; growth stage 13) and Setaria viridis (SETVI; growth stage 13). Each spray test was replicated three times. The test plants were then grown in a glasshouse under controlled conditions (20/16° C. day/night; 16 hours light; 65% humidity) and watered twice a day. The efficacy of the herbicide was assessed visually and expressed as a percentage of the leaf area killed. Samples were assessed at a time period of 21 days following application.
Dodecyl 23EO and hexadecyl 20EO were capped with an n-hexyl ether cap. The efficacy of 1:1 blends of these with their uncapped counterparts were tested as adjuvants for the herbicide pinoxaden was tested in a glasshouse against two weed species, sown into standard soil in pots and cultivated under controlled conditions in a glasshouse (20/16° C. day/night; 16 hours light; 65% humidity). Pinoxaden was added to the spray tank as a standard EC (emulsifiable concentrate) formulation. The plants were sprayed with pinoxaden at a.i. rates of 7.5 or 15 grams per hectare using a laboratory track sprayer which delivered the aqueous spray composition at a rate of 200 litres per hectare, using a flat fan nozzle (Teejet 11002VS) at 2 bar. The spray solutions tested included the capped and uncapped alone or in the 1:1 blends with the capped surfactants. The adjuvants were added to the spray solution at a total surfactant rate of 0.2% w/v. All spray solutions also contained 10% w/w of iso-propanol. The weed species and their BBCH growth stage at spraying was Avena fatua (AVEFA; growth stage 12). Each spray test was replicated three times. The test plants were then grown in a glasshouse under controlled conditions (20/16° C. day/night; 16 hours light; 65% humidity) and watered twice a day. The efficacy of the herbicide was assessed visually and expressed as a percentage of the leaf area killed. Samples were assessed at a time period of 21 days following application.
Oleyl 20EO was capped with -butyl, n-pentyl and n-benzyl caps. The efficacy of 1:1 blends of these with their uncapped counterparts were tested as adjuvants for the herbicide pinoxaden was tested in a glasshouse against two weed species, sown into standard soil in pots and cultivated under controlled conditions in a glasshouse (20/16° C. day/night; 16 hours light; 65% humidity). Pinoxaden was added to the spray tank as a standard EC (emulsifiable concentrate) formulation. The plants were sprayed with pinoxaden at a.i. rates of 7.5 or 15 grams per hectare using a laboratory track sprayer which delivered the aqueous spray composition at a rate of 200 litres per hectare, using a flat fan nozzle (Teejet 11002VS) at 2 bar. The spray solutions tested included the capped and uncapped alone or in the 1:1 blends with the capped surfactants. The adjuvants were added to the spray solution at a total surfactant rate of 0.2% w/v. All spray solutions also contained 10% w/w of iso-propanol.

[2] = Cloud point measurement (absorbance at 500 nm as a function of temperature); format: physicochemical; conditions: 1% aqueous solutions
Procedure: Consistent with the standard method for measuring the cloud point of surfactants, the cloud point of each of the above blends was measured at a total concentration of 1% w/w in water using a Perkin Elmer spectrophotometer fitted with a PTP6 temperature controller. The absorbance of the solution at 500 nm wavelength was determined as a function of temperature. The cloud point was recorded as the onset of a rapid increase in absorbance as the solution began to cloud.
Cloud point—the measurements relied on the same method as for ‘Example 1’
Cloud points—were measured using the same method as in Example 1.
as §1, §2

[3] = total surfactant concentration 25% w/w, Table 35
[4] = total surfactant concentration 30% w/w, Table 35
[5] = total surfactant concentration 35% w/w, Table 35
[6] = total surfactant concentration 40% w/w, Table 35
[7] = total surfactant concentration 25% w/w, Table 31
[8] = total surfactant concentration 30% w/w, Table 31
[9] = total surfactant concentration 35% w/w, Table 31
[10] = total surfactant concentration 40% w/w, Table 31

Row | De-gelling temperature [1, 3] | De-gelling temperature [1, 4] | De-gelling temperature [1, 5] | De-gelling temperature [1, 6] | Cloud point ([2]; Table 34) | De-gelling temperature [1, 7] | De-gelling temperature [1, 8] | De-gelling temperature [1, 9] | De-gelling temperature [1, 10] | Cloud point ([2]; Table 30) | Molecule | Mean control (Avena fatua (AVEFA); Example 9, growth stage 12) | Mean control (Avena fatua (AVEFA); Example 7, growth stage 12)
1 | <5 °C | <5 °C | 5 °C | 15.1 °C | 38.7 °C | – | – | – | – | – | CCCCCCCC/C=C\CCCCCCCCOCCOCCOCCOCCOCCOCCOCCOCCOCCOCCOCCOCCOCCOCCOCCOCCOCCOCCOCCOCCOCc1ccccc1 [Oleyl 20EO n-benzyl ether] | 89.3% | –
2 | – | – | – | – | – | <5 °C | <5 °C | <5 °C | 7.4 °C | 67.2 °C | Dodecyl 23EO n-hexyl ether | – | 86%
3 | – | – | – | – | – | <5 °C | <5 °C | 5.7 °C | 19.6 °C | 55.9 °C | Hexadecyl 20EO n-hexyl ether | – | 93.3%
4 | <5 °C | 27.3 °C | 34.0 °C | 36.1 °C | 55.9 °C | – | – | – | – | – | Oleyl 20EO n-pentyl ether | 87.7% | –
5 | – | – | – | – | – | 21.1 °C | 38.6 °C | 55.0 °C | 64.3 °C | >90.0 °C | dodecyl 23 ethoxylate [Dodecyl 23EO] | – | 83.3%

Source: US11779014B2, “Adjuvants” (SYNGENTA PARTICIPATIONS AG, priority 2017, dated 2023)
